Measured values reported in patent US9637523B2 (priority 2012, dated 2017).
Entries after “also recorded” stand apart in the source; their conditions may differ.

Columns and labels:
[1] = tested on: PB1, NS1, NP and M1 of IAV; type: cell-based
[2] = tested on: avian IAV FPV; type: cell-based
[3] = tested on: polymerase subunits PB1, PB2, PA and NP of the avian IAV FPV-Rostock; type: cell-based, A/FPV/Rostock/34 (H7N1)
[4] = tested on: human IAV PR8; type: cell-based

Cc1ccc(NC(=O)c2ccc(CN3CCN(C)CC3)cc2)cc1Nc1nccc(-c2cccnc2)n1 [Imatinib]
viral protein expression [1]: neither detect an impact | replication (progeny virus yields) of avian IAV FPV [2]: interferes with replication properties of the avian IAV FPV in a concentration dependent manner; also recorded: only efficient upon low dose infection | viral polymerase activity (luciferase) [3]: neither detect an impact | replication (progeny virus yields) of human IAV PR8 [4]: absolutely independent of the tyrosine kinase activity of c-Abl
